Assay results as given in publication PMC10318822, “Phase 1 dose-escalation study to evaluate the safety, tolerability, pharmacokinetics, and anti-tumor activity of FCN-159 in adults with neurofibromatosis type 1-related unresectable plexiform neurofibromas” (BMC Medicine, 2023).

Test system: adult patients with NF1-related PN
Test: Phase I dose-escalation: DLT, MTD, RP2D and drug-related TEAEs (CTCAE v5.0)
Experimental: This is a multicenter, open-label, single-arm, non-randomized, phase I dose-escalation trial to evaluate the safety, tolerability, pharmacokinetic (PK), and anti-tumor activity of orally administered FCN-159 in adult patients with NF1 (NCT04954001). Phase I commenced with dose escalation in adult patients following a standard 3 + 3 design (Supplementary Table S1) to determine the maximum tolerated dose (MTD) of FCN-159 administered daily under fasting conditions (defined as no food or drink 1 h before and 2 h after each dose) in 28-day cycles. Study drug was dispensed at the study site and patient adherence was monitored by the records of drug dispensation and return. Patients were on treatment until PD, death, patient's voluntary withdrawal from study treatment, or study termination. The study was followed for 2 years after the last patient in. The starting dose was 4 mg, escalating in cohorts of at least three evaluable patients at 6 mg, 8 mg, and 12 mg until the MTD was determined. The starting dose in this study was determined based on available data from a phase 1a, first-in-human study of FCN-159 in patients with advanced NRAS ^mut+ melanoma at the time of study design. […] Dose expansion at a likely RP2D level enrolled approximately six patients. The highest dose level with a dose-limiting toxicity (DLT) incidence rate ≤ 33% (0/3 or 1/6 patients) was to be considered the MTD. If patients experienced grade ≥ 3 and/or unacceptable toxic events that were considered as at least possibly related to the study treatment, the study treatment was discontinued and supportive treatment was given in accordance with local treatment routines. If the toxicity returned to grade ≤ 2 within 28 days after the occurrence, and there was no progression on patients’ conditions or the investigator believed that patients could benefit from the study treatment, the original dose could be maintained or reduced after discussion with medical monitor. After completion of the dose escalation part of the study, PK, efficacy, safety, and tolerability data were analyzed to select the RP2D.
Primary endpoints of the study were the DLT incidence rate, MTD, and RP2D. Secondary endpoints included other safety assessments, imaging tumor response (complete response [CR], PR, stable disease [SD], or progressive disease [PD]), and PK parameters of FCN-159. Adverse events were graded per CTCAE v5.0.
All patients underwent a complete medical history, physical examination, Eastern Cooperative Oncology Group (ECOG) assessment, and laboratory analysis of test results. Drug-related TEAEs, serious adverse events (SAEs), TEAEs of grade ≥ 3 toxicity, and TEAEs leading to drug discontinuation were reviewed on an ongoing basis. Efficacy was assessed by radiologic scans and clinical assessment. Tumor assessments per Response Evaluation in Neurofibromatosis Schwannomatosis criteria were performed by investigators using MRI volumetric analysis every 4 cycles within the first 2 years (± 7 days) and every 6 cycles after 2 years (± 14 days) until PD, death, patient's voluntary withdrawal from study treatment, or study termination. MRI sequences of […], T1- and T2-weighted sequences were chosen and the software of Extended Brilliance Workspace, SIGNA Premier and uExceed were used for MRI volumetric analysis. The same software was used for all tumor assessments at baseline and subsequent assessed timepoints of the same patient. Pain was assessed by an 11-point numerical rating scale (NRS-11).
The sample size for the dose-escalation study was estimated to be 24 based on the 3 + 3 method. Safety was analyzed in patients who received at least one dose of FCN-159 and had at least one safety assessment. DLT was assessed in the DLT analysis set, defined as patients who were enrolled in the dose-escalation study and met the DLT evaluation criteria.

Compound: Cn1c(=O)c(F)c(Nc2ccc(I)cc2F)c2c(=O)n(C3CC3)nc(-c3cccc(NS(=O)(=O)C4CC4)c3)c21 [FCN-159]
- Drug-related TEAE: Decreased appetite (6 mg (N = 4)): 0 n (%)
- Drug-related TEAE: Dermatitis acneiform (6 mg (N = 4)): 0 n (%)
- Drug-related TEAE: Diarrhea (6 mg (N = 4)): 0 n (%)
- Drug-related TEAE: Drug eruption (6 mg (N = 4)): 2 (50.0) n (%)
- Drug-related TEAE: Dyslipidemia (6 mg (N = 4)): 0 n (%)
- Drug-related TEAE: Ejection fraction decreased (6 mg (N = 4)): 0 n (%)
- Drug-related TEAE: Electrocardiogram QT prolonged (6 mg (N = 4)): 0 n (%)
- Drug-related TEAE: Electrocardiogram abnormal (6 mg (N = 4)): 0 n (%)
- Drug-related TEAE: Epistaxis (6 mg (N = 4)): 0 n (%)
- Drug-related TEAE: Folliculitis (6 mg (N = 4)): 1 (25.0) n (%)
- Drug-related TEAE: Functional gastrointestinal disorder (6 mg (N = 4)): 0 n (%)
- Drug-related TEAE: Gamma-glutamyltransferase increased (6 mg (N = 4)): 1 (25.0) n (%)
- Drug-related TEAE: Gingival pain (6 mg (N = 4)): 0 n (%)
- Drug-related TEAE: Hyperlipidemia (6 mg (N = 4)): 0 n (%)
- Drug-related TEAE: Hypertension (6 mg (N = 4)): 0 n (%)
- Drug-related TEAE: Hypoalbuminemia (6 mg (N = 4)): 0 n (%)
- Drug-related TEAE: Hypocalcemia (6 mg (N = 4)): 1 (25.0) n (%)
- Drug-related TEAE: Hypophosphatemia (6 mg (N = 4)): 0 n (%)
- Drug-related TEAE: Hypoproteinemia (6 mg (N = 4)): 0 n (%)
- Drug-related TEAE: Immunoglobulins increased (6 mg (N = 4)): 1 (25.0) n (%)
- Drug-related TEAE: Impetigo (6 mg (N = 4)): 0 n (%)
- Drug-related TEAE: Left atrial enlargement (6 mg (N = 4)): 0 n (%)
- Drug-related TEAE: Lipoprotein abnormal (6 mg (N = 4)): 0 n (%)
- Drug-related TEAE: Malaise (6 mg (N = 4)): 0 n (%)
- Drug-related TEAE: Menstrual disorder (6 mg (N = 4)): 0 n (%)
- Drug-related TEAE: Mitral valve incompetence (6 mg (N = 4)): 1 (25.0) n (%)
- Drug-related TEAE: Mouth ulceration (6 mg (N = 4)): 0 n (%)
- Drug-related TEAE: Muscular weakness (6 mg (N = 4)): 0 n (%)
- Drug-related TEAE: Oedema peripheral (6 mg (N = 4)): 1 (25.0) n (%)
- Drug-related TEAE: Pain in extremity (6 mg (N = 4)): 0 n (%)
- Drug-related TEAE: Paronychia (6 mg (N = 4)): 2 (50.0) n (%)
- Drug-related TEAE: Prealbumin decreased (6 mg (N = 4)): 0 n (%)
- Drug-related TEAE: Protein urine present (6 mg (N = 4)): 2 (50.0) n (%)
- Drug-related TEAE: Pruritus (6 mg (N = 4)): 0 n (%)
- Drug-related TEAE: QRS axis abnormal (6 mg (N = 4)): 0 n (%)
- Drug-related TEAE: Rash (6 mg (N = 4)): 1 (25.0) n (%)
- Drug-related TEAE: Sinus arrhythmia (6 mg (N = 4)): 0 n (%)
- Drug-related TEAE: Sinus bradycardia (6 mg (N = 4)): 0 n (%)
- Drug-related TEAE: Sinusitis (6 mg (N = 4)): 0 n (%)
- Drug-related TEAE: Skin exfoliation (6 mg (N = 4)): 0 n (%)
- Drug-related TEAE: Specific gravity urine increased (6 mg (N = 4)): 2 (50.0) n (%)
- Drug-related TEAE: Stomatitis (6 mg (N = 4)): 2 (50.0) n (%)
- Drug-related TEAE: Supraventricular extrasystoles (6 mg (N = 4)): 0 n (%)
- Drug-related TEAE: Total bile acids increased (6 mg (N = 4)): 2 (50.0) n (%)
- Drug-related TEAE: Tricuspid valve incompetence (6 mg (N = 4)): 1 (25.0) n (%)
- Drug-related TEAE: Urinary occult blood positive (6 mg (N = 4)): 1 (25.0) n (%)
- Drug-related TEAE: Urinary sediment present (6 mg (N = 4)): 0 n (%)
- Drug-related TEAE: Urinary tract infection (6 mg (N = 4)): 1 (25.0) n (%)
- Drug-related TEAE: Urine ketone body present (6 mg (N = 4)): 0 n (%)
- Drug-related TEAE: Urobilinogen urine increased (6 mg (N = 4)): 2 (50.0) n (%)
- Drug-related TEAE: Urticaria (6 mg (N = 4)): 0 n (%)
- Drug-related TEAE: Vision blurred (6 mg (N = 4)): 0 n (%)
- Drug-related TEAE: Visual acuity reduced (6 mg (N = 4)): 1 (25.0) n (%)
- Drug-related TEAE: pH urine decreased (6 mg (N = 4)): 1 (25.0) n (%)
- Drug-related TEAE: pH urine increased (6 mg (N = 4)): 0 n (%)
- Subjects with any drug-related TEAE (6 mg (N = 4)): 4 (100) n (%)
- Drug-related TEAE: Abdominal pain (8 mg (N = 8)): 1 (12.5) n (%)
- Drug-related TEAE: Acne (8 mg (N = 8)): 0 n (%)
- Drug-related TEAE: Acne pustular (8 mg (N = 8)): 1 (12.5) n (%)
- Drug-related TEAE: Alanine aminotransferase increased (8 mg (N = 8)): 1 (12.5) n (%)
- Drug-related TEAE: Albumin globulin ratio decreased (8 mg (N = 8)): 1 (12.5) n (%)
- Drug-related TEAE: Alopecia (8 mg (N = 8)): 1 (12.5) n (%)
- Drug-related TEAE: Amylase increased (8 mg (N = 8)): 0 n (%)
- Drug-related TEAE: Anemia (8 mg (N = 8)): 1 (12.5) n (%)
- Drug-related TEAE: Aortic dilatation (8 mg (N = 8)): 1 (12.5) n (%)
- Drug-related TEAE: Aspartate aminotransferase increased (8 mg (N = 8)): 0 n (%)
- Drug-related TEAE: Asthenia (8 mg (N = 8)): 0 n (%)
- Drug-related TEAE: Beta globulin decreased (8 mg (N = 8)): 0 n (%)
- Drug-related TEAE: Beta globulin increased (8 mg (N = 8)): 0 n (%)
- Drug-related TEAE: Blood alkaline phosphatase increased (8 mg (N = 8)): 3 (37.5) n (%)
- Drug-related TEAE: Blood bilirubin increased (8 mg (N = 8)): 2 (25.0) n (%)
- Drug-related TEAE: Blood creatine phosphokinase increased (8 mg (N = 8)): 2 (25.0) n (%)
- Drug-related TEAE: Blood fibrinogen increased (8 mg (N = 8)): 0 n (%)
- Drug-related TEAE: Blood lactate dehydrogenase increased (8 mg (N = 8)): 1 (12.5) n (%)
- Drug-related TEAE: Blood pressure increased (8 mg (N = 8)): 0 n (%)
- Drug-related TEAE: Blood urea increased (8 mg (N = 8)): 1 (12.5) n (%)
- Drug-related TEAE: Blood uric acid increased (8 mg (N = 8)): 0 n (%)
- Drug-related TEAE: Breath odor (8 mg (N = 8)): 1 (12.5) n (%)
- Drug-related TEAE: Capillary disorder (8 mg (N = 8)): 0 n (%)
- Drug-related TEAE: Constipation (8 mg (N = 8)): 1 (12.5) n (%)
- Drug-related TEAE: Decreased appetite (8 mg (N = 8)): 1 (12.5) n (%)
- Drug-related TEAE: Dermatitis acneiform (8 mg (N = 8)): 1 (12.5) n (%)
- Drug-related TEAE: Diarrhea (8 mg (N = 8)): 1 (12.5) n (%)
- Drug-related TEAE: Drug eruption (8 mg (N = 8)): 2 (25.0) n (%)
- Drug-related TEAE: Dyslipidemia (8 mg (N = 8)): 1 (12.5) n (%)
- Drug-related TEAE: Ejection fraction decreased (8 mg (N = 8)): 1 (12.5) n (%)
- Drug-related TEAE: Electrocardiogram QT prolonged (8 mg (N = 8)): 1 (12.5) n (%)
- Drug-related TEAE: Electrocardiogram abnormal (8 mg (N = 8)): 0 n (%)
- Drug-related TEAE: Epistaxis (8 mg (N = 8)): 1 (12.5) n (%)
- Drug-related TEAE: Folliculitis (8 mg (N = 8)): 4 (50.0) n (%)
- Drug-related TEAE: Functional gastrointestinal disorder (8 mg (N = 8)): 1 (12.5) n (%)
- Drug-related TEAE: Gamma-glutamyltransferase increased (8 mg (N = 8)): 0 n (%)
- Drug-related TEAE: Gingival pain (8 mg (N = 8)): 1 (12.5) n (%)
- Drug-related TEAE: Hyperlipidemia (8 mg (N = 8)): 0 n (%)
- Drug-related TEAE: Hypertension (8 mg (N = 8)): 1 (12.5) n (%)
- Drug-related TEAE: Hypoalbuminemia (8 mg (N = 8)): 1 (12.5) n (%)
- Drug-related TEAE: Hypocalcemia (8 mg (N = 8)): 1 (12.5) n (%)
- Drug-related TEAE: Hypophosphatemia (8 mg (N = 8)): 1 (12.5) n (%)
- Drug-related TEAE: Hypoproteinemia (8 mg (N = 8)): 1 (12.5) n (%)
- Drug-related TEAE: Immunoglobulins increased (8 mg (N = 8)): 1 (12.5) n (%)
- Drug-related TEAE: Impetigo (8 mg (N = 8)): 0 n (%)
- Drug-related TEAE: Left atrial enlargement (8 mg (N = 8)): 1 (12.5) n (%)
- Drug-related TEAE: Lipoprotein abnormal (8 mg (N = 8)): 0 n (%)
- Drug-related TEAE: Malaise (8 mg (N = 8)): 0 n (%)
- Drug-related TEAE: Menstrual disorder (8 mg (N = 8)): 0 n (%)
- Drug-related TEAE: Mitral valve incompetence (8 mg (N = 8)): 2 (25.0) n (%)
